From ChEMBL document CHEMBL1201862, “PubChem BioAssay data set” (2004)
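Interpolation was linear, between the two tested concentrations surrounding the appropriate level; five concentrations were tested over 48 hours in 96-well plates. GI50 marks 50% less growth.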 Activity calls are given as the source filed them. No stated cut-off is given here; in the data, active = GI50 up to about 1.1 µM and inactive = higher.

Experiments:
Experiment in all cases: DTP human tumour cell line panel, 48 h
NCI-H23 = system: NCI-H23
SNB-19 = system: SNB-19
HCT-116 = system: HCT-116
NCI-H460 = system: NCI-H460
M14 = system: M14
OVCAR-8 = system: OVCAR-8
SK-MEL-28 = system: SK-MEL-28
SR = system: SR
SF-268 = system: SF-268
HL-60 = system: HL-60
MOLT-4 = system: MOLT-4
SF-539 = system: SF-539
CCRF-CEM = system: CCRF-CEM
UO-31 = system: UO-31
NCI/ADR-RES = system: NCI/ADR-RES
OVCAR-5 = system: OVCAR-5
ACHN = system: ACHN
SNB-75 = system: SNB-75
IGROV-1 = system: IGROV-1
PC-3 = system: PC-3

Row | Structure (SMILES) | GI50 (NCI-H23) | GI50 (SNB-19) | GI50 (HCT-116) | GI50 (NCI-H460) | GI50 (M14) | GI50 (OVCAR-8) | GI50 (SK-MEL-28) | GI50 (SR) | GI50 (SF-268) | GI50 (HL-60) | GI50 (MOLT-4) | GI50 (SF-539) | GI50 (CCRF-CEM) | GI50 (UO-31) | GI50 (NCI/ADR-RES) | GI50 (OVCAR-5) | GI50 (ACHN) | GI50 (SNB-75) | GI50 (IGROV-1) | GI50 (PC-3)
1 | COc1cc(/C=C2/SC(c3ccccc3)N(c3cccc(Cl)c3)C2=O)cc(OC)c1OC (stereo not drawn) | 22.9 µM (inactive) | 27.9 µM (inactive) | 15.3 µM (inactive) | 32.1 µM (inactive) | 19.8 µM (inactive) | 23.1 µM (inactive) | 26.2 µM (inactive) | 10.8 µM (inactive) | 21 µM (inactive) | 29.8 µM (inactive) | 24.7 µM (inactive) | 22.5 µM (inactive) | 11.3 µM (inactive) | 24.8 µM (inactive) | 17.1 µM (inactive) | 29.9 µM (inactive) | 19.3 µM (inactive) | – | – | –
2 | CC1(n2nc(-c3ccccc3)n(-c3ccccc3)c2=O)CSC1 | > 100 µM (inactive) | > 100 µM (inactive) | > 100 µM (inactive) | > 100 µM (inactive) | > 100 µM (inactive) | > 100 µM (inactive) | > 100 µM (inactive) | > 100 µM (inactive) | > 100 µM (inactive) | > 100 µM (inactive) | > 100 µM (inactive) | > 100 µM (inactive) | > 100 µM (inactive) | > 100 µM (inactive) | – | > 100 µM (inactive) | > 100 µM (inactive) | > 100 µM (inactive) | > 100 µM (inactive) | –
3 | CS/C(=N\c1ccccc1)N(c1ccccc1)c1nc(=[N+](C)C)ss1.[O-][Cl+3]([O-])([O-])[O-] | 4.48 µM (inactive) | 2.22 µM (inactive) | 2.56 µM (inactive) | 0.0338 µM (active) | 1.13 µM (inactive) | 2.44 µM (inactive) | 1.14 µM (inactive) | 2.16 µM (inactive) | 5.13 µM (inactive) | 0.927 µM (active) | 1.5 µM (inactive) | 4.15 µM (inactive) | 0.508 µM (active) | 15.1 µM (inactive) | – | 15.3 µM (inactive) | 5.42 µM (inactive) | 4.71 µM (inactive) | 1.22 µM (inactive) | –
4 | CN(C)CCN1C(=O)c2ccccc2C1(O)c1ccc(Cl)cc1 (stereo not drawn) | > 100 µM (inactive) | > 100 µM (inactive) | 63.5 µM (inactive) | 93.1 µM (inactive) | 42.9 µM (inactive) | > 100 µM (inactive) | 37.8 µM (inactive) | – | > 100 µM (inactive) | 26.4 µM (inactive) | 39.3 µM (inactive) | – | 32.4 µM (inactive) | 24.3 µM (inactive) | 97.1 µM (inactive) | > 100 µM (inactive) | > 100 µM (inactive) | 83.4 µM (inactive) | 39.3 µM (inactive) | 50.1 µM (inactive)
5 | CCOC(=O)NNC(=O)NCCCCNC(=O)NNC(=O)OCC | > 100 µM (inactive) | > 100 µM (inactive) | > 100 µM (inactive) | > 100 µM (inactive) | > 100 µM (inactive) | > 100 µM (inactive) | > 100 µM (inactive) | – | – | > 100 µM (inactive) | > 100 µM (inactive) | > 100 µM (inactive) | > 100 µM (inactive) | > 100 µM (inactive) | > 100 µM (inactive) | > 100 µM (inactive) | > 100 µM (inactive) | 0.458 µM (active) | > 100 µM (inactive) | > 100 µM (inactive)
6 | Oc1cccc(-c2ccc3c4c2O[C@H]2c5[nH]c6ccccc6c5C[C@@]5(O)[C@@H](C3)N(CC3CC3)CC[C@]425)c1 | 2.3 µM (inactive) | 1.64 µM (inactive) | 1.82 µM (inactive) | – | 1.7 µM (inactive) | 1.83 µM (inactive) | – | – | 1.68 µM (inactive) | 1.65 µM (inactive) | – | 1.68 µM (inactive) | 1.9 µM (inactive) | 1.67 µM (inactive) | 2.11 µM (inactive) | 1.96 µM (inactive) | 2.23 µM (inactive) | – | 1.74 µM (inactive) | 1.98 µM (inactive)
7 | CCCCn1c(-c2ccc([N+](=O)[O-])cc2)cs/c1=N/N=C1\C(=O)Nc2ccc(Br)cc21 | 16.6 µM (inactive) | 21.8 µM (inactive) | 12.9 µM (inactive) | 14.6 µM (inactive) | 12.1 µM (inactive) | 30 µM (inactive) | 29.4 µM (inactive) | – | 29.9 µM (inactive) | 16.9 µM (inactive) | 7.43 µM (inactive) | 14 µM (inactive) | 17.8 µM (inactive) | 18.6 µM (inactive) | 17.1 µM (inactive) | 30.5 µM (inactive) | 12.9 µM (inactive) | 20.3 µM (inactive) | 19.1 µM (inactive) | –
8 | Cc1cccc(NC(=O)/C=C/c2ccccc2)c1C | > 100 µM (inactive) | > 100 µM (inactive) | > 100 µM (inactive) | > 100 µM (inactive) | > 100 µM (inactive) | > 100 µM (inactive) | > 100 µM (inactive) | > 100 µM (inactive) | > 100 µM (inactive) | > 100 µM (inactive) | > 100 µM (inactive) | > 100 µM (inactive) | > 100 µM (inactive) | – | – | > 100 µM (inactive) | > 100 µM (inactive) | 77.6 µM (inactive) | – | > 100 µM (inactive)
9 | O=C(Nc1ccccc1)C(=O)C(C(=O)c1ccccc1F)C1OC(=O)c2ccccc21 (stereo not drawn) | 47.3 µM (inactive) | 27.5 µM (inactive) | 18.9 µM (inactive) | 37.7 µM (inactive) | 44 µM (inactive) | 19.5 µM (inactive) | 40.6 µM (inactive) | 21.5 µM (inactive) | 21.1 µM (inactive) | 24.4 µM (inactive) | 28.4 µM (inactive) | 19.3 µM (inactive) | 29.5 µM (inactive) | 47.3 µM (inactive) | – | 81.5 µM (inactive) | 49.9 µM (inactive) | 21.1 µM (inactive) | 71.4 µM (inactive) | –
10 | CS(=O)(=O)c1nc(-c2cc3c(c(S(C)(=O)=O)n2)CCC3)cc2c1CCCCC2 | 41.4 µM (inactive) | 34.4 µM (inactive) | > 100 µM (inactive) | – | > 100 µM (inactive) | 66.5 µM (inactive) | > 100 µM (inactive) | – | 14.8 µM (inactive) | > 100 µM (inactive) | > 100 µM (inactive) | – | > 100 µM (inactive) | 0.834 µM (active) | 49.5 µM (inactive) | > 100 µM (inactive) | 45 µM (inactive) | 6.37 µM (inactive) | 20.1 µM (inactive) | > 100 µM (inactive)
11 | CC(C)=CC(=O)OC1C2C(C)C(=O)OC2C(O)C(C)C2C=CC(=O)C21C (stereo not drawn) | 2.71 µM (inactive) | 7.38 µM (inactive) | 1.66 µM (inactive) | 1.96 µM (inactive) | – | 1.79 µM (inactive) | 1.34 µM (inactive) | – | 1.57 µM (inactive) | 0.826 µM (active) | 1.23 µM (inactive) | 3.61 µM (inactive) | 0.802 µM (active) | 6.03 µM (inactive) | 4.3 µM (inactive) | 7.83 µM (inactive) | – | 2.72 µM (inactive) | 3.33 µM (inactive) | –
12 | CC(C)CCCCCCCCCCCCC(=O)NCC(=O)NC1C(C)OC(Nc2ncnc3c2ncn3C)C(O)C1O (stereo not drawn) | 9.42 µM (inactive) | 2.88 µM (inactive) | 1.54 µM (inactive) | 3.09 µM (inactive) | – | 4.27 µM (inactive) | > 100 µM (inactive) | – | 3.21 µM (inactive) | 0.485 µM (active) | > 100 µM (inactive) | 2.82 µM (inactive) | > 100 µM (inactive) | 1.9 µM (inactive) | > 100 µM (inactive) | 7.33 µM (inactive) | – | 2.33 µM (inactive) | 2.94 µM (inactive) | –
13 | CN1OC(=O)N(C)C1c1ccccc1 (stereo not drawn) | > 100 µM (inactive) | > 100 µM (inactive) | > 100 µM (inactive) | > 100 µM (inactive) | – | > 100 µM (inactive) | > 100 µM (inactive) | – | > 100 µM (inactive) | > 100 µM (inactive) | > 100 µM (inactive) | > 100 µM (inactive) | > 100 µM (inactive) | > 100 µM (inactive) | > 100 µM (inactive) | > 100 µM (inactive) | – | > 100 µM (inactive) | > 100 µM (inactive) | –
14 | CCN(CC)c1ccc(C2SCC(=O)N2c2ccc(NC(=O)c3ccc(N4C(=O)CSC4c4ccc(N(CC)CC)cc4)cc3)cc2)cc1 (stereo not drawn) | > 100 µM (inactive) | > 100 µM (inactive) | > 100 µM (inactive) | > 100 µM (inactive) | > 100 µM (inactive) | > 100 µM (inactive) | > 100 µM (inactive) | – | > 100 µM (inactive) | – | 29.7 µM (inactive) | > 100 µM (inactive) | 35.5 µM (inactive) | > 100 µM (inactive) | > 100 µM (inactive) | > 100 µM (inactive) | > 100 µM (inactive) | > 100 µM (inactive) | > 100 µM (inactive) | > 100 µM (inactive)
15 | C=C1C(O)CC[C@]2(C)C1C1OC(C)(C)O[C@]13CC(=O)C(C)=C([C@H]1OC(C)(C)OC12)C3(C)C (stereo partly drawn) | > 100 µM (inactive) | > 100 µM (inactive) | > 100 µM (inactive) | > 100 µM (inactive) | – | > 100 µM (inactive) | > 100 µM (inactive) | > 100 µM (inactive) | > 100 µM (inactive) | > 100 µM (inactive) | 58.6 µM (inactive) | > 100 µM (inactive) | > 100 µM (inactive) | > 100 µM (inactive) | > 100 µM (inactive) | > 100 µM (inactive) | 92 µM (inactive) | > 100 µM (inactive) | > 100 µM (inactive) | –
16 | Oc1cc(-c2ccc(F)cc2)nc2ncccc12 | 63.4 µM (inactive) | 80.2 µM (inactive) | – | – | 61.5 µM (inactive) | 77.8 µM (inactive) | > 100 µM (inactive) | – | 62.1 µM (inactive) | – | 52.7 µM (inactive) | 41 µM (inactive) | 36.2 µM (inactive) | 34.4 µM (inactive) | 32.9 µM (inactive) | 98.9 µM (inactive) | 73.8 µM (inactive) | 20.7 µM (inactive) | 67.5 µM (inactive) | –
